Molecules are shown by their SMILES.

This note sets out measurements from patent publication US20230365592A1 (Agios Pharmaceuticals, Inc., priority 2022, published 2023).

The first test deals with T1, human PAH with the R408W mutation (Homo sapiens, UniProt P00439, R408W).
T1 construct: expressed in transfected cells
T1 sequence (P00439 1-452 R408W): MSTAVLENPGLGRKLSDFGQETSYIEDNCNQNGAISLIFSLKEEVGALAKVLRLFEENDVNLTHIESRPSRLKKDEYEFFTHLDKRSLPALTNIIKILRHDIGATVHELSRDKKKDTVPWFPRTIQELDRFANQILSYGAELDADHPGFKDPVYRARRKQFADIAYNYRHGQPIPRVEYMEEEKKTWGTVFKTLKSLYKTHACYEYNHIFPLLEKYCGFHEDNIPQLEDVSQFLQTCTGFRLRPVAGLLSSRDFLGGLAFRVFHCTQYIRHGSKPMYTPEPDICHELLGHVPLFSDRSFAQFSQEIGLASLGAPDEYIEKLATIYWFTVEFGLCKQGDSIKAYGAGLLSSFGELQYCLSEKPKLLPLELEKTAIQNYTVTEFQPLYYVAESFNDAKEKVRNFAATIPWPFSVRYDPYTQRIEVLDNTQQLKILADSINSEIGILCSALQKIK
In words: Cell Based Phenylalanine Flux Assay.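 Also: after compound treatment, cells received sepiapterin plus isotope-labelled Phenylalanine for 4 hours, then labelled Tyrosine in the medium was quantified, 10-point 2-fold dilution series run in duplicate.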 As to conditions: A375 cells expressing R408W PAH; 24 hrs with compound, then 20 µM sepiapterin and 800 µM 13C9,15N-Phenylalanine for 4 hours; 13C-Tyrosine by LC-MS; average where tested multiple times; read-out: AC50.
Turning to `CC(C)(O)c1nnc(C(=O)N2CCc3[nH]cnc3C2c2cc3c(C(F)F)cccn3n2)o1` (stereo not shown), the AC50 is 1 to 5 µM.
The same measure, in the same setting: for `Cc1cccc2cc(C3c4nc[nH]c4CCN3C(=O)c3nnc(C4CC(F)(F)C4)o3)nn12` (stereo not shown) the value was over 5 µM.
For the molecule `CC(C)(O)c1nnc(C(=O)N2CCc3[nH]cnc3C2c2cc3c(C(F)(F)F)cccn3n2)o1` (stereo not shown), the AC50 is 1 to 5 µM.
The same measure, in the same setting: next, `Fc1ncccc1-c1nnc(N2CCc3[nH]cnc3C2c2cc3c(C4CC4)cccn3n2)o1` (stereo not shown): over 5 µM.

Still in this test, the particulars now being: A375 cells expressing human PAH R408W; 24 hrs compound incubation; 13C-Tyrosine by LC-MS; average where tested multiple times; read-out: AC50.
`FC(F)(F)c1cccn2nc([C@H]3c4nc[nH]c4CCN3c3ccccn3)cc12` [Example 1871, (R)-5-(pyridin-2-yl)-4-(4-(trifluoromethyl)pyrazolo[1,5-a]pyridin-2-yl)-4,5,6,7-tetrahydro-1H-imidazo[4,5-c]pyridine]: the AC50 was over 5 µM.
Still for that read-out and setting: for `Nc1cnc(N2CCc3[nH]cnc3[C@H]2c2cc3c(C(F)(F)F)cccn3n2)nc1` [Example 1835, (S)-2-(4-(4-(trifluoromethyl)pyrazolo[1,5-a]pyridin-2-yl)-1,4,6,7-tetrahydro-5H-imidazo[4,5-c]pyridin-5-yl)pyrimidin-5-amine] the value was 0.5 to 1 µM; for `CC(C)c1cccn2nc([C@H]3c4nc[nH]c4CCN3C(=O)c3nnc(-c4ccn(C(F)(F)F)n4)o3)cc12` [Example 1985, (R)-(4-(4-isopropylpyrazolo[1,5-a]pyridin-2-yl)-1,4,6,7-tetrahydro-5H-imidazo[4,5-c]pyridin-5-yl)(5-(1-(trifluoromethyl)-1H-pyrazol-3-yl)-1,3,4-oxadiazol-2-yl)methanone], over 5 µM.

Still in this test, the particulars now being: A375 cells expressing human R408W PAH; 24 hrs compound incubation; 13C-Tyrosine by LC-MS; average where tested multiple times; read-out: AC50.
For `Cc1c(-c2nnc(C(=O)N3CCc4[nH]cnc4[C@H]3c3cc4cccc(C(F)F)n4n3)o2)cnn1C` [Example 1366, (S)-(4-(7-(difluoromethyl)pyrazolo[1,5-a]pyridin-2-yl)-6,7-dihydro-1H-imidazo[4,5-c]pyridin-5(4H)-yl)(5-(1,5-dimethyl-1H-pyrazol-4-yl)-1,3,4-oxadiazol-2-yl)methanone], the AC50 was under 0.5 µM.
Same read-out and setting: next, `O=C(c1nnc(-c2ccc(C(F)(F)F)cn2)o1)N1CCc2[nH]cnc2[C@H]1c1cc2c(F)cccn2n1` [Example 879, (S)-(4-(4-fluoropyrazolo[1,5-a]pyridin-2-yl)-6,7-dihydro-1H-imidazo[4,5-c]pyridin-5(4H)-yl)(5-(5-(trifluoromethyl)pyridin-2-yl)-1,3,4-oxadiazol-2-yl)methanone]: under 0.5 µM; `Cc1cccn2nc([C@H]3c4nc[nH]c4CCN3c3nnc(C(F)F)o3)cc12` [Example 1710, (R)-2-(difluoromethyl)-5-(4-(4-methylpyrazolo[1,5-a]pyridin-2-yl)-6,7-dihydro-1H-imidazo[4,5-c]pyridin-5(4H)-yl)-1,3,4-oxadiazole]: over 5 µM.
The same measure, in the same setting: for `CC(C)(C)c1nnc(C(=O)N2CCc3[nH]cnc3[C@@H]2c2cc3cccc(F)n3n2)o1` [Example 1248, (R)-(5-(tert-butyl)-1,3,4-oxadiazol-2-yl)(4-(7-fluoropyrazolo[1,5-a]pyridin-2-yl)-6,7-dihydro-1H-imidazo[4,5-c]pyridin-5(4H)-yl)methanone] the value was 1 to 5 µM.
Still for that read-out and setting: for `Cn1nc(Cl)cc1C(=O)N1CCc2[nH]cnc2[C@H]1c1cc2ccccn2n1` [Example 680, (S)-(3-chloro-1-methyl-1H-pyrazol-5-yl)(4-(pyrazolo[1,5-a]pyridin-2-yl)-6,7-dihydro-1H-imidazo[4,5-c]pyridin-5(4H)-yl)methanone] the value was under 0.5 µM.
Turning to `Cc1c(-c2nnc(C(=O)N3CCc4[nH]cnc4[C@@H]3c3cc4ccccn4n3)o2)cnn1C` [Example 973, (R)-(5-(1,5-dimethyl-1H-pyrazol-4-yl)-1,3,4-oxadiazol-2-yl)(4-(pyrazolo[1,5-a]pyridin-2-yl)-6,7-dihydro-1H-imidazo[4,5-c]pyridin-5(4H)-yl)methanone], the AC50 is over 5 µM.

For orientation: AC50 means the concentration giving half of the maximal activity seen.
